Data reported in patent US20220073536A1 (Rigel Pharmaceuticals, Inc., priority 2003, published 2022).

Key:
[1] = tested on: cultured human mast cells (CHMC); test: CHMC low cell density IgE activation: tryptase assay; assay type: cell-based; conditions: low cell density, IgE activation
Outline: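 Low-density CHMC, 1000-1500 cells/well in MT; 1 hr 37 °C; anti-IgE challenge 30 min 37 °C; supernatant tryptase via fluorogenic substrate, 30 min RT.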

[2] = tested on: cultured human mast cells (CHMC); test: CHMC low cell density ionomycin activation: tryptase assay; assay type: cell-based; conditions: low cell density, 3 pt, read-out: LD Tryptase, CHMC, Iono, 3 pt
[3] = Homo sapiens, Mast cell, 3 pt, read-out: LD Tryptase, CHMC, IgE, 3 pt
[4] = 3 pt, read-out: LD Tryptase, CHMC, IgE, 3 pt
[5] = Homo sapiens, Mast cell, 8 pt, read-out: LD Tryptase, CHMC, IgE, 8 pt
[6] = 8 pt, read-out: LD Tryptase, CHMC, IgE, 8 pt

| Compound | IC50 [1, 3] | IC50 ([2]; Homo sapiens, Mast cell) | IC50 [1, 4] | IC50 [2] | IC50 [1, 5] | IC50 [1, 6] |
| --- | --- | --- | --- | --- | --- | --- |
| CNC(=O)c1ccc(Nc2ncc(F)c(Nc3ccc(OC)c(OC)c3)n2)cc1Cl [Compound 464, N2-[3-Chloro-4-(N-methylamino)carbonylphenyl]-N4-(3,4-dimethoxyphenyl)-5-fluoro-2,4-pyrimidinediamine] | < 10 µM | > 10 µM | – | – | – | – |
| CNC(=O)c1ccc(Nc2ncc(F)c(Nc3cc(OC)cc(OC)c3)n2)cc1Cl [Compound 465] | < 10 µM | > 10 µM | – | – | – | – |
| CNC(=O)c1ccc(Nc2ncc(F)c(Nc3ccc(OC)c(Cl)c3)n2)cc1Cl [Compound 466] | < 10 µM | > 10 µM | – | – | < 10 µM | – |
| CCOC(=O)C(C)(C)Oc1ccc(Nc2nc(Nc3ccc(C(=O)NC)c(Cl)c3)ncc2F)cc1Cl [Compound 467, N4-[3-Chloro-4-(ethoxycarbonyl-1,1-dimethylmethyleneoxy)phenyl]-N2-[3-chloro-4-(N-methylamino)carbonylphenyl]-5-fluoro-2,4-pyrimidinediamine] | – | – | < 10 µM | < 10 µM | – | < 10 µM |
| CNC(=O)c1ccc(Nc2ncc(F)c(Nc3cccc(O)c3)n2)cc1Cl [Compound 468] | < 10 µM | > 10 µM | – | – | < 10 µM | – |
| CCOC(=O)C(C)(C)Oc1ccc(N(C)c2nc(Cl)ncc2F)cc1Cl [Compound 470, 2-Chloro-N4-[3-chloro-4-(ethoxycarbonyl-1,1-dimethylmethyleneoxy)phenyl]-5-fluoro-N4-methyl-4-pyrimidineamine] | – | – | > 10 µM | < 10 µM | – | – |
| COc1ccc(Nc2ncc(F)c(Nc3cccc(O)c3)n2)c(OC)n1 [Compound 472] | < 10 µM | > 10 µM | – | – | – | – |
| CNC(=O)c1ccc(Nc2ncc(F)c(N(C)c3ccc(OC)c(OC)c3)n2)cc1Cl [Compound 474, N2-[3-Chloro-4-(N-methylamino)carbonylphenyl]-N4-(3,4-dimethoxyphenyl)-5-fluoro-N4-methyl-2,4-pyrimidinediamine] | < 10 µM | > 10 µM | – | – | – | – |
| CNC(=O)c1cc(Nc2nc(Nc3cc(OC)cc(OC)c3)ncc2F)ccc1Cl [Compound 475, N4-[4-Chloro-3-(N-methylamino)carbonylphenyl]-N2-(3,5-dimethoxyphenyl)-5-fluoro-2,4-pyrimidinediamine] | < 10 µM | > 10 µM | – | – | < 10 µM | – |
| CNC(=O)c1cc(Nc2nc(Nc3cc(C)cc(C)c3)ncc2F)ccc1Cl [Compound 476, N4-[4-Chloro-3-(N-methylamino)carbonylphenyl]-N2-(3,5-dimethylphenyl)-5-fluoro-2,4-pyrimidinediamine] | < 10 µM | > 10 µM | – | – | < 10 µM | – |
| CNC(=O)COc1cccc(Nc2ncc(F)c(Nc3ccc(Cl)c(C(=O)NC)c3)n2)c1 [Compound 477, N4-[4-Chloro-3-(N-methylamino)carbonylphenyl]-5-fluoro-N2-[3-(N-methylamino)carbonylmethyleneoxyphenyl]-2,4-pyrimidinediamine] | – | – | < 10 µM | > 10 µM | – | < 10 µM |
| CNC(=O)c1ccc(Nc2ncc(F)c(Nc3ccc(Cl)c(C(=O)NC)c3)n2)cc1Cl [Compound 478, N2-[3-Chloro-4-(N-methylamino)carbonylphenyl]-N4-[4-chloro-3-(N-methylamino)carbonylphenyl]-5-fluoro-2,4-pyrimidinediamine] | < 10 µM | > 10 µM | – | – | – | – |
| CNC(=O)c1cc(Nc2ccnc(Nc3ccc4cc[nH]c4c3)n2)ccc1Cl [Compound 479, N4-[4-Chloro-3-(N-methylamino)carbonylphenyl]-N2-(indol-6-yl)-2,4-pyrimidinediamine] | < 10 µM | > 10 µM | – | – | – | – |
| CNC(=O)c1ccc(Nc2nc(Nc3cc(OC)cc(OC)c3)ncc2F)cc1Cl [Compound 481] | < 10 µM | > 10 µM | – | – | < 10 µM | – |
| CNC(=O)c1ccc(Nc2nc(Nc3cc(C)cc(C)c3)ncc2F)cc1Cl [Compound 482] | < 10 µM | > 10 µM | – | – | < 10 µM | – |
| Nc1cccc(Nc2nc(Cl)ncc2F)n1 [Compound 486, N4-(2-Aminopyrid-6-yl)-2-chloro-5-fluoro-4-pyrimidineamine] | > 10 µM | > 10 µM | – | – | – | – |
| CCOC(=O)c1cc2cccc(Nc3ncc(F)c(NCCO)n3)c2[nH]1 [Compound 489] | > 10 µM | > 10 µM | – | – | – | – |
| CNS(=O)(=O)c1ccc(Nc2ncc(F)c(Nc3ccc(OC)c(OC)c3)n2)cc1OC [Compound 494, N4-(3,4-Dimethoxyphenyl)-5-fluoro-N2-[3-methoxyphenyl-4-(N-methylamino)sulfonyl]-2,4-pyrimidinediamine] | – | – | < 10 µM | > 10 µM | – | < 10 µM |
| CNS(=O)(=O)c1ccc(Nc2ncc(F)c(Nc3cc(OC)cc(OC)c3)n2)cc1OC [Compound 495, N4-(3,5-Dimethoxyphenyl)-5-fluoro-N2-[3-methoxyphenyl-4-(methylamino)sulfonyl]-2,4-pyrimidinediamine] | – | – | < 10 µM | > 10 µM | – | – |
| CNS(=O)(=O)c1ccc(Nc2ncc(F)c(Nc3ccc4c(c3)NC(=O)C(C)(C)O4)n2)cc1OC [Compound 496, N4-(2,2-Dimethyl-3-oxo-4H-benz[1,4]oxazin-6-yl)-5-fluoro-N2-[3-methoxyphenyl-4-(methylamino)sulfonyl]-2,4-pyrimidinediamine] | – | – | < 10 µM | < 10 µM | – | < 10 µM |
| CNS(=O)(=O)c1ccc(Nc2ncc(F)c(Nc3ccc(Cl)c(C(F)(F)F)c3)n2)cc1OC [Compound 497, N4-(4-Chloro-3-trifluoromethylphenyl)-5-fluoro-N2-[3-methoxyphenyl-4-(methylamino)sulfonyl]-2,4-pyrimidinediamine] | – | – | < 10 µM | > 10 µM | – | < 10 µM |
| CNS(=O)(=O)c1ccc(Nc2ncc(F)c(Nc3ccc(OC(F)(F)F)c(Cl)c3)n2)cc1OC [Compound 498, N4-(3-Chloro-4-trifluoromethoxyphenyl)-5-fluoro-N2-[4-(3-methoxyphenyl-N-methylamino)sulfonyl]-2,4-pyrimidinediamine] | – | – | < 10 µM | > 10 µM | – | < 10 µM |
| CNS(=O)(=O)c1ccc(Nc2ncc(F)c(Nc3cccc(O)c3)n2)cc1OC [Compound 499, 5-Fluoro-N4-(3-hydroxyphenyl)-N2-[3-methoxyphenyl-4-(N-methylamino)sulfonyl]-2,4-pyrimidinediamine] | – | – | < 10 µM | > 10 µM | – | < 10 µM |
| CNc1ncc(F)c(N(C)c2ccc(OC)nc2OC)n1 [Compound 500] | > 10 µM | > 10 µM | – | – | – | – |
| CNS(=O)(=O)c1ccc(Nc2nc(Cl)ncc2F)cc1OC [Compound 502, 2-Chloro-5-fluoro-N4-[4-(N-methylamino)sulfonyl-3-methoxyphenyl]-2,4-pyrimidineamine] | – | – | > 10 µM | > 10 µM | – | – |
| COc1cc(Nc2ncc(F)c(Nc3ccc(OCCO)nc3)n2)cc(OC)c1 [Compound 503, N2-(3,5-Dimethoxyphenyl)-5-fluoro-N4-[2-(2-hydroxyethyleneoxy)pyrid-5-yl]-2,4-pyrimidinediamine] | – | – | < 10 µM | > 10 µM | – | < 10 µM |

Results, then the compound that gave them:

| IC50 [1, 3] | IC50 ([2]; Homo sapiens, Mast cell) | IC50 [1, 4] | IC50 [2] | IC50 [1, 5] | IC50 [1, 6] | Compound |
| --- | --- | --- | --- | --- | --- | --- |
| < 10 µM | > 10 µM | – | – | – | – | COc1ccc(Nc2ncc(F)c(Nc3ccc4c(c3)OCCO4)n2)c(OC)n1 [Compound 460] |
| > 10 µM | > 10 µM | – | – | – | – | CNc1ncc(F)c(N(C)c2ccc3c(c2)OCCO3)n1 [Compound 461] |
| – | – | > 10 µM | > 10 µM | – | – | CN(C)c1ncc(F)c(N(C)c2ccc3c(c2)OCCO3)n1 [Compound 462, N2-Dimethyl-N4-(3,4-ethylenedioxyphenyl)-5-fluoro-N4-methyl-2,4-pyrimidinediamine] |
| < 10 µM | > 10 µM | – | – | < 10 µM | – | CNC(=O)c1ccc(Nc2ncc(F)c(Nc3ccc4c(c3)OCCO4)n2)cc1Cl [Compound 463] |
| > 10 µM | > 10 µM | – | – | – | – | CN(c1ccc2c(c1)OCCO2)c1nc(NCCO)ncc1F [Compound 469, N4-(3,4-Ethylenedioxyphenyl)-5-fluoro-N2-(2-hydroxyethyl)-N4-methyl-2,4-pyrimidinediamine] |
| > 10 µM | > 10 µM | – | – | – | – | CC(C)Nc1ncc(F)c(N(C)c2ccc3c(c2)OCCO3)n1 [Compound 471, N4-(3,4-Ethylenedioxyphenyl)-5-fluoro-N2-isopropyl-N4-methyl-2,4-pyrimidinediamine] |
| < 10 µM | > 10 µM | – | – | – | – | CNC(=O)c1ccc(Nc2ncc(F)c(N(C)c3ccc4c(c3)OCCO4)n2)cc1Cl [Compound 473, N2-[3-Chloro-4-(N-methylamino)carbonylphenyl]-N4-(3,4-ethylenedioxyphenyl)-5-fluoro-N4-methyl-2,4-pyrimidinediamine] |
| > 10 µM | > 10 µM | – | – | – | – | COc1ncc(F)c(N(C)c2ccc3c(c2)OCCO3)n1 [Compound 480] |
| > 10 µM | > 10 µM | – | – | – | – | CN(c1ccc2c(c1)OCCO2)c1nc(N)ncc1F [Compound 487, N4-(3,4-Ethylenedioxyphenyl)-5-fluoro-N4-methyl-2,4-pyrimidinediamine] |
| < 10 µM | > 10 µM | – | – | – | – | COc1cc(OC)cc(N(C)c2nc(Cl)ncc2F)c1 [Compound 488] |
| > 10 µM | > 10 µM | – | – | – | – | COc1ccc(N(C)c2nc(Cl)ncc2F)c(OC)n1 [Compound 490] |
| < 10 µM | > 10 µM | – | – | < 10 µM | – | CNS(=O)(=O)c1ccc(Nc2ncc(F)c(Nc3ccc4c(c3)OCCO4)n2)cc1OC [Compound 493, N4-(3,4-Ethylenedioxyphenyl)-5-fluoro-N2-[4-(N-methylamino)sulfonyl-3-methoxyphenyl]-2,4-pyrimidinediamine] |
| > 10 µM | > 10 µM | – | – | – | – | CNc1ncc(F)c(N(C)c2cc(Cl)c(OC)c(Cl)c2)n1 [Compound 501] |
